Key:
[1] = tested on: prostaglandin E2 (PGE2) secreted by degenerating retinal explants; assay: PGE2 ELISA of explant medium from ex vivo retinal explant/RPE co-culture; type: cell-based, rat; details: 4 mg/ml AAGP present for the first day, medium collected after 10 days of co-culture; n=3; p<0.05; without AAGP ~20 pg/ml
Description: (§1) FIG. 2 illustrates that AAGP™ reduces the amount of prostaglandin E2 (PGE2) secreted by degenerating explants and the level of COX-2 expression. PGE2 is toxic to photoreceptor precursor cells (PPCs). (A) Rat retinal explants were cultured in explant medium with or without 4 mg/ml AAGP (n=3 for each condition). Explant media was replaced after 24 hours and replenished every other day with medium not containing AAGP. After ten days, explant medium was collected and processed for PGE2 ELISA. Histograms represent the amount of PGE2 (pg/ml) present in the explant medium. (B) COX-2 expression was assessed by RT-qPCR in stressed ARPE-19 cells in the presence or absence of 4 mg/ml AAGP (n=4). Histograms represent fold change in COX-2 expression, normalized to GAPDH. […]
(§2) Firstly, the amount of PGE2 produced is determined within the ex vivo system under normal culture conditions and after media is supplemented with 4 mg/ml AAGP for the first 24 hours of co-culture. Three equal-sized retinal quadrants, measuring ˜10 mm^2 each, and are analyzed for each condition. Explant media are collected at the end of 10 days and assessed for concentration of PGE2 by enzyme-linked immunosorbent assay (ELISA; R&D Systems). PGE2 induced reduction in metabolic activity, contributing to cell death, is assessed in PPCs cultured in isolation using a Thiazolyl Blue Tetrazolium Bromide (MTT) assay (Sigma).

[2] = tested on: COX-2 expression in stressed ARPE-19 cells; assay: COX-2 expression by RT-qPCR in ARPE-19 cell stress assay (IL-1β followed by ATP); type: cell-based, human; details: stressed ARPE-19 cells (17 ng/ml IL-1β 8 h, then 5 mM ATP 1 h) in presence of 4 mg/ml AAGP; normalized to GAPDH; n=4
Description: as §1, with “GAPDH. (C) Cultured PPCs were treated with increasing amounts of PGE2 for 48 hours, followed by the MTT assay (n=4).” for “GAPDH.”
To determine whether AAGP™ inhibits COX-2 expression, ARPE-19 cells (Dunn et al., 1996) are treated with 17 ng/ml Interleukin 1β (IL-1β; Sigma; Lukiw et al., 2006) for 8 hours and then added 5 mM ATP for 1 hour to further induce cell stress (Sigma; Mehta et al., 2001). […] COX-2 expression is assessed using Reverse Transcription Quantitative Polymerase Chain Reaction (RT-qPCR) with the TaqMan® primer/probe system, Fast Advanced Master Mix and the ViiA™ 7 Real Time PCR system (Applied Biosystems). […]

[3] = tested on: photoreceptor precursor cells (PPCs); assay: PPC survival in ex vivo co-culture system, viable labelled PPCs counted by FACS; type: cell-based, human; details: PPCs pre-treated 24 hours with 4 mg/ml AAGP, 10 days of co-culture
Description: FIG. 3 illustrates that Cell survival is enhanced by pre-incubation with AAGP™. Untreated or AAGP™-treated PPCs are fluorescently labelled and placed between retinal explants and RPE for ten days (n=4). Live PPCs are separated by Fluorescence-Activated Cell Sorting and the proportion of cells surviving after 10 days of co-culture was calculated. Percent cell survival of untreated and AAGP-treated PPCs was plotted ( ? ) and for each condition the average±SEM is represented by a thick black line.
To determine whether AAGP™ improves PPC survival in the ex vivo system, PPC cell viability is assessed with and without pre-treating cell grafts with AAGP™ for 24 hours prior to inclusion within the ex vivo system. PPCs are labelled with 20 μM CellTrace™ Far Red DDAO-SE (Life Technologies). […] After 10 days, the components of the co-culture system are enzymatically dissociated into single cell suspensions and the number of viable PPCs is assessed by Fluorescence-Activated Cell Sorting (FACS; Influx Sorter; BD Biosciences).
Finally, the viability of PPCs in the ex vivo system is tested. […] Ten days later, the co-cultured components were dissociated into single cells and viable PPCs (labeled red) were separated by Fluorescence activated cell sorting (FACS, FIG. 3). The proportion of live cells remaining after 10 days of co-culture is calculated. […]

PPCs = assay: Toxicity of AAGP to PPCs (unpublished data); type: cell-based, human; details: 4 mg/ml
Description: Now referring to FIG. 1, within the ex vivo system, rat neurosensory retinal explants are incubated upon human embryonic stem cells (hESC) derived retinal pigment epithelium (RPE). Neurosensory retina was obtained from the S334ter-4 model of retinal degeneration (Chen et al, 1995) and cultured within the system for 10 days (for detailed experimental design see Yanai et al., 2015). Rodent retinal tissue collection was carried out with approval of the Animal Care Committee at the University of British Columbia and in accordance with the Association for Research in Vision and Ophthalmology Statement for the Use of Animals in Ophthalmic and Vision Research. Throughout the present study, AAGP™ was used at 4 mg/ml, after it was confirmed it was not toxic to PPCs at this concentration (unpublished data).

[4] = tested on: photoreceptor precursor cells (PPCs); assay: MTT assay of cultured PPCs treated with increasing amounts of PGE2; type: cell-based, human; details: PPCs cultured 48 hours with increasing PGE2, up to 50 μM; n=4
Description: as §1
as §2, with “(Sigma). […]” for “(Sigma).”

C[C@H](NC(=O)[C@H](C)NC(=O)[C@@H](N)CCCCNC(=O)C(F)(F)C1(O)O[C@H](CO)[C@H](O)[C@H](O)[C@H]1O)C(=O)O (some centres unmarked) [AAGP™]
amount of PGE2 in explant medium [1]: ~7.5 pg/mL
decline in COX-2 expression [2]: at least 13.3±4.5 fold
increase in average cell viability vs. untreated PPCs [3]: ~3 fold
toxicity to PPCs (PPCs): not toxic

CCCCC[C@H](O)/C=C/[C@H]1[C@H](O)CC(=O)[C@@H]1C/C=C\CCCC(=O)O [PGE2, prostaglandin E2]
reduction of cell survival (MTT) [4]: up to 44%
